Measured values taken from the METLIN SMRT retention time set (Domingo-Almenara et al. 2019).

Experiment: gradient 5% acetonitrile 3 min, to 50% in 2 min, to 85% in 15 min, held 3 min, 100 µL/min
Conditions: column: Zorbax Extend-C18 2.1 x 50 mm; eluents: water / acetonitrile, 0.1% formic acid
Summary of the method: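 Mixtures of ~100 pure standards were chromatographed on a Zorbax Extend-C18 column (2.1 × 50 mm, 1.8 μm) at 100 μL/min using water and acetonitrile, each with 0.1% formic acid. Detection used a quadrupole time-of-flight mass spectrometer in positive and negative ionization mode, and data collection spanned 3 months. Retention time was obtained from adduct peaks picked computationally and each checked manually.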

| Compound | RP-LC retention time [s] |
| --- | --- |
| COC1CC2C=C(C)/C=C/C=C/C(=O)NC(c3ccccc3)C/C=C/CCC(O)CC(=O)C2=C1O (centres undefined) | 977 |
| COc1ccc(-c2csc(N3CCN(c4ccc([N+](=O)[O-])c(-n5nc(C)cc5C)c4)CC3)n2)cc1 | 1150 |
| COCCNc1cc(-n2ccnc2C)n2nccc2n1 | 554 |
| Cc1ccc(-n2cc3c(c(C(=O)NCCCOC(C)C)c2=O)CC(C)(C)CC3=O)cc1 | 997 |
| O=C(CCC(=O)N1CCOc2ccccc21)Nc1c(F)c(F)c(F)c(F)c1F | 912 |
| Cc1ccc(C)c(S(=O)(=O)Nc2ccc3scnc3c2)c1 | 776 |
| CN(C)C(=O)c1cnn(-c2cccc(F)c2)c1-n1cccc1 | 806 |
| Nc1cc(C2CCN(C(=O)c3cccnc3)CC2)no1 | 554 |
| Fc1ccc(-c2nnc(Cc3nc(-c4cccc(Br)c4)no3)o2)cc1 | 1090 |
| O=C(c1cccnc1)N1CCC(c2noc(-c3cnccn3)n2)C1 (centres undefined) | 581 |
| Cc1ccc(NC(=O)Cn2c(C)nc3c(sc4nc(-c5ccccc5)ccc43)c2=O)c(C)c1 | 1090 |
| CCOc1ccccc1CNC(=O)CCc1nnc2c3cc(-c4ccc(F)cc4)nn3ccn12 | 830 |
| CC1CCCCN1CCNC(=O)CCCn1c(=O)c2cccn2c2ccc(Br)cc21 (centres undefined) | 673 |
| CC(=O)N1CCc2ccc(C(=O)NC3CCCCCC3)cc21 | 778 |
| CCCNC(=O)C1CCN(c2ccc(SCC(=O)Nc3ccc(OC)cc3)nn2)CC1 | 611 |
| CC(=O)NCC1(O)CCCC(C)C1 (centres undefined) | 663 |
| CC(=O)NCc1nc(-c2cccc(-c3csc(C)n3)c2)no1 | 704 |
| COc1cccc(-c2nc3cnccn3c2NCCC(=O)NC2CCN(C)CC2)c1 | 554 |
| CCc1nc(N)n(CC(=O)NCc2ccc(F)cc2F)c(=O)c1C | 632 |
| CCn1cc(-c2nc(CC(=O)Nc3cc(Cl)ccc3OC)cs2)c2cccnc21 | 1130 |
| Cc1ccc(NC(=O)Cn2cnc3c(sc4nc(-c5ccccc5)ccc43)c2=O)cc1 | 859 |
| CCOC(=O)c1c(C)[nH]c(C(=O)N2CCC(C(C)C(=O)NCc3ccc(F)cc3Cl)CC2)c1C (centres undefined) | 863 |

| Compound | RP-LC retention time [s] |
| --- | --- |
| Cc1ccc(C(=O)N[C@@H]2CN(S(C)(=O)=O)C[C@H]2CN(C)C)s1 | 582 |
| O=C(NCCc1csc(-c2cccc(F)c2)n1)c1ccc([N+](=O)[O-])cc1Cl | 917 |
| O=c1c2cc(-c3ccc(F)cc3)nn2ccn1CC(O)c1ccc2c(c1)OCO2 (centres undefined) | 864 |
| CCCN1C(=O)C(C)(C(=O)NCc2ccc(C)cc2)Oc2cccnc21 (centres undefined) | 616 |
| CCOc1ccc2nc(C(=O)NC(C)(C)C)cn2n1 | 802 |
| CC(=O)N1CCN(C(=O)c2ccc(C(=O)O)cc2)CC1 | 530 |
| CC(=O)N1CCCC1c1nc(C2CN(C(=O)CCn3cc(C)cn3)C2)no1 (centres undefined) | 604 |
| Cn1cccc1C(=O)N1CC(c2nc(CCOC3CCCC3)no2)C1 | 845 |
| O=C(NC1CCCCC1N1C(=O)CSC1=O)c1ccco1 (centres undefined) | 668 |
| CC(C)CN1C(=O)c2cccn2CC1C(=O)NCc1cccs1 (centres undefined) | 754 |
| C#CCN[C@@H]1CCc2ccccc21 | 613 |
| CCOC(=O)c1cn(CC)c2cc(N3CCCC3)c(F)cc2c1=O | 822 |
| CC1(C)CC(=O)C2=C(C1)Nc1ccccc1N(C(=O)c1ccccc1)C2c1ccco1 (centres undefined) | 825 |
| COc1cc(NC(=O)CSc2ccc(N3CCCC(C(=O)NC4CC4)C3)nn2)cc(OC)c1 (centres undefined) | 642 |
| Cc1ccc(NC(=O)N2CC(N(C)Cc3cccnc3)C2)cc1C | 605 |
| Cc1ccc(-c2nnc(N3CCC(C(=O)NC4CCCCCC4)CC3)o2)cc1 | 949 |
| CN(C)CCNc1oc(-c2ccc(COc3ccc(Cl)cc3)o2)nc1C#N | 988 |
| CN(C)c1ccc(NC(=O)c2ccco2)cc1 | 532 |
| CCOc1ccc(NC(=O)c2cc3c(=O)n(CC(C)C)c4ccccc4n3n2)cc1 | 1150 |
| Cn1c(SCC(N)=O)nnc1-c1sc2cc(Cl)ccc2c1Cl | 702 |
| Cc1cccc2nc(-c3ccc(O)cc3)c(Nc3ccc4c(c3)OCCO4)n12 | 646 |
| CCCCNC(=O)CCC(=O)Nc1ccc2nc(N3CCN(C)CC3)cc(C)c2c1 | 520 |

More lines, now with the values ahead:

| RP-LC retention time [s] | Compound |
| --- | --- |
| 607 | Cn1c(CN2CCN(C(=O)c3ccco3)CC2)nc2cc(NC(=O)c3ccco3)ccc21 |
| 751 | O=c1n(Cc2ccc(F)cc2Cl)nc2n1CCCCC2 |
| 672 | COCc1nc2nccc(-c3ccccc3)n2n1 |
| 687 | CC(C)(NC(=O)c1cccs1)C(=O)N1CCN(c2ccccc2)CC1 |
| 699 | CC(=O)N1CCc2cc(N3CC(C(=O)Nc4ccccc4Br)CC3=O)ccc21 (centres undefined) |
| 676 | O=C(C1CCCO1)N1CC2CN(S(=O)(=O)c3cccc(F)c3)CC(C1)O2 (centres undefined) |
| 675 | O=C(NCc1ccc(Cl)cc1)c1ccc2c(c1)nc1n2CCN(Cc2ccccn2)C1=O |
| 938 | O=C(NCc1ccc(F)cc1F)C1CCCN(c2nc3ccsc3c(=O)n2Cc2ccccc2)C1 (centres undefined) |
| 1090 | Cc1cc(-c2cc(S(=O)(=O)N3CCC(Cc4ccccc4)CC3)c(C)s2)n[nH]1 |
| 806 | COc1ccccc1C(=O)N1CCc2c(c(-c3nnc(-c4ccccc4Cl)o3)nn2C)C1 |
| 862 | Cn1c(=O)c2cc(C(=O)N3CCN(c4ccc(Cl)cc4)CC3)sc2n(C)c1=O |
| 579 | CCN(CC)CCNC(=O)C1CCN(c2nc3ccccc3n3cccc23)CC1 |
| 734 | COc1ccccc1NC(=O)C1CCN(S(=O)(=O)c2ccc3[nH]c(=O)ccc3c2)CC1 |
| 780 | O=C(NCc1ccco1)c1ccc(Cn2nc(N3CCN(c4ccccc4)CC3)ccc2=O)o1 |
| 709 | COc1ccccc1NC(=O)Cn1nc2n(c1=O)CCCCC2 |
| 770 | COc1ncc(C(=O)N2CCN(c3ccccc3F)CC2)cn1 |
| 571 | O=C1C(N2CCN(S(=O)(=O)c3ccccc3F)CC2)CCN1Cc1ccccn1 (centres undefined) |
| 736 | O=c1nc(SCc2csc(-c3ccccc3)n2)c2c(n1CCCO)CCC2 |
| 719 | Cc1nc(-c2csc(S(=O)(=O)N3CCC(C(=O)N4CCOCC4)CC3)c2)no1 |
| 1300 | CCc1cc(Br)ccc1NC(=O)C1CCCN(c2nc3ccccc3nc2OC)C1 (centres undefined) |
| 709 | Cc1ccccc1C(=O)CC1(O)C(=O)Nc2ccccc21 (centres undefined) |
| 693 | COCc1nncn1C1CCN(S(=O)(=O)c2cccc(F)c2)CC1 |
| 678 | COc1cccc(CNC2=NCCNC23CCN(S(=O)(=O)c2ccccc2)CC3)c1 |

| RP-LC retention time [s] | Compound |
| --- | --- |
| 733 | O=C(NC1CC1)[C@@H]1C[C@H](Oc2ccccc2)CN1C(=O)c1ccsc1 |
| 676 | Cc1cccc(N2CCN(C(=O)c3ccc(Cn4cncn4)cc3)CC2C)c1 (centres undefined) |
| 740 | CCc1cc2c(cc1N1CCC(N3CCOCC3)CC1)C(C)(C)c1[nH]c3cc(C#N)ccc3c1C2=O |
| 666 | O=C(CCC1CCN(c2cc(NC3CC3)ncn2)CC1)NCc1cc(F)ccc1F |
| 658 | O=C(Nc1nccs1)C1CCN(C(=O)C2CC(=O)N(c3ccccc3)C2)CC1 (centres undefined) |
| 598 | Cn1cnc(S(=O)(=O)N2CCN(Cc3cccc(F)c3)C3(CCOCC3)C2)c1 |
| 1290 | O=C(NC1CCCCCC1)C1CCCN(c2nc3ccccc3n(Cc3ccccc3)c2=O)C1 (centres undefined) |
| 792 | O=C(Nc1ccc2c(c1)CCCN2C(=O)c1ccco1)c1ccccc1C(F)(F)F |
| 696 | Cc1ccc(CN2CCN(C3CCN(C(=O)Nc4ccc5c(c4)OCO5)CC3)C(=O)C2=O)cc1 |
| 778 | COc1ccc(-c2nc3cccnc3n2C2CCN(S(=O)(=O)c3ccccc3)C2)cc1 (centres undefined) |
| 634 | O=C1CCC2(CNC(=O)c3n[nH]c(=O)c4ccccc34)CCCC=C2N1 (centres undefined) |
| 869 | O=C(Nc1ccc(F)cc1F)N1CCN(Cc2nc3cc(-c4ccccc4)ccc3o2)CC1 |
| 857 | Cc1cc(C)cc(N2CCC(NC(=O)c3ccccc3)C2=O)c1 (centres undefined) |
| 616 | CC(NC(=O)Cn1ncc2c(N3CCN(c4ccccn4)CC3)ncnc21)c1ccccc1 (centres undefined) |
| 817 | O=C(Nc1cnn(-c2ncc(N3CCCC3)cn2)c1)c1ccccc1C(F)(F)F |
| 681 | CCNC(=O)C1CCCN(c2nc3ncn(CC(=O)Nc4ccc(F)cc4Cl)c(=O)c3s2)C1 (centres undefined) |
| 653 | O=C(Cc1cccs1)NCCS(=O)(=O)N1CCN(c2ncccn2)CC1 |
| 784 | O=C(CN1C(=O)CCc2cc(Br)ccc21)NCc1ccccc1 |
| 830 | O=C1NCCCn2cc(S(=O)(=O)N3CCN(c4cccc(C(F)(F)F)c4)CC3)cc21 |
| 753 | COC(=O)c1ccc2c(=O)n(-c3cc(F)cc(F)c3)c(N3CCN(c4ccccn4)CC3)nc2c1 |
| 1290 | CCCS(=O)(=O)N1CCC2(CC1)CN(c1cccc(F)c1)C2c1ccccc1 (centres undefined) |
| 762 | CC(=O)Nc1c(C)noc1/C=C\c1ccc(S(=O)(=O)N2CCN(c3ncccn3)CC2)cc1 |
